Results as given in patent publication US6706736B2, “Antidepressant azaheterocyclylmethyl derivatives of oxaheterocycle-fused-[1,4]-benzodioxans” (Wyeth, priority 2001, dated 2004).
Structures can show the parent of a compound that is named as a salt. Where two headings read alike, the source gives them in different places.

Assays:
serotonin transporter = target: T1, serotonin transporter (Rattus norvegicus, UniProt P31652); assay: 3H-paroxetine displacement from rat frontal cortical membranes (serotonin transporter affinity); assay type: binding
T1 construct: displace ^3H-paroxetine from male rat frontal cortical membranes; from tissue; host or cells: male rat frontal cortex membranes
T1 sequence (P31652 whole entry): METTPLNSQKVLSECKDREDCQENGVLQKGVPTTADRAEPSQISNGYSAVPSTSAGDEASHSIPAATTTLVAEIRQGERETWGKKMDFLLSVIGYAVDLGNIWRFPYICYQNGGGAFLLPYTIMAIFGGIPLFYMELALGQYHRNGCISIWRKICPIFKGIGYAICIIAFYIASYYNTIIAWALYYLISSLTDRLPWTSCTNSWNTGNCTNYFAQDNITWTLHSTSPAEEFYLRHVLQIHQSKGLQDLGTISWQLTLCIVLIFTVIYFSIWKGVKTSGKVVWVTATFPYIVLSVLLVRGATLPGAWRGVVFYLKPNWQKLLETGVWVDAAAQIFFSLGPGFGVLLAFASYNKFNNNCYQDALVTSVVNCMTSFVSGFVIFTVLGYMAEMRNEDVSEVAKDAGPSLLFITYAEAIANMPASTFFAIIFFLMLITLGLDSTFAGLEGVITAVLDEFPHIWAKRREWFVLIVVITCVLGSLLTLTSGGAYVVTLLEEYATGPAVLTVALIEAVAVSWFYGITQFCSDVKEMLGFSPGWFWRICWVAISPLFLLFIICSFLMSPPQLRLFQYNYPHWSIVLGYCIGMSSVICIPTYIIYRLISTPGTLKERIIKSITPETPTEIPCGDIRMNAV

human 5-HT1A receptors = target: T2, human 5-HT1A receptors (Homo sapiens, UniProt P08908); assay: [3H] 8-OHDPAT displacement from 5-HT1A receptor in transfected CHO cells; assay type: binding
T2 construct: expressed in transfected cells; host or cells: CHO cells (stably transfected)
T2 sequence (P08908 1-422): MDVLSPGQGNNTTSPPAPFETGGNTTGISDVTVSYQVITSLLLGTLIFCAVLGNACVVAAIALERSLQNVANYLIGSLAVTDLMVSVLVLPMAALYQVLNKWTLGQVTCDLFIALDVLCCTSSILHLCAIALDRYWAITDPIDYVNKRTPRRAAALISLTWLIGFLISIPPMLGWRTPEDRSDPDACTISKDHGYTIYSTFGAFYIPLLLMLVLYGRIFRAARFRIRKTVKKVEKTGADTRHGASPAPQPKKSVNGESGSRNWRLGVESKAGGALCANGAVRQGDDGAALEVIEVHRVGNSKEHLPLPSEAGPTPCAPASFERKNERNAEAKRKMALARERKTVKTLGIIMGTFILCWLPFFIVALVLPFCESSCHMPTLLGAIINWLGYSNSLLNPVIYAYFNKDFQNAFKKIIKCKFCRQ
Description: High affinity for the serotonin 5-HT1A receptor was established by testing the claimed compound's ability to displace [^3H] 8-OHDPAT (dipropylaminotetralin) from the 5-HT1A serotonin receptor following a modification of the procedure of Hall et al., J. Neurochem. 44, 1685 (1985) which utilizes CHO cells stably transfected with human 5-HT1A receptors.

[1] = target: T3, cloned human 5-HT1A receptors (Homo sapiens, UniProt P08908); assay: 35S-GTPγS binding assay, antagonist activity at 5-HT1A receptors; assay type: biochemical; settings: reversal of standard agonist 8-OHDPAT; for IC50: read-out: 5-HT1A Function IC50; for 5-HT1A Function Imax (maximum inhibitory effect): value in parentheses
T3 construct: expressed in transfected cells
T3 sequence (P08908 1-422): T2 sequence (P08908 1-422)
Procedure: Antagonist activity at 5-HT1A receptors was established by using a ^35S-GTPγS binding assay similar to that used by Lazareno and Birdsall (Br. J. Pharmacol. 109: 1120, 1993), in which the test compound's ability to affect the binding of ^35S-GTPγS to membranes containing cloned human 5-HT1A receptors was determined. Agonists produce an increase in binding whereas antagonists produce no increase but rather reverse the effects of the standard agonist 8-OHDPAT. The test compound's maximum inhibitory effect is represented as the Imax, while its potency is defined by the IC50.

[2] = 3H-paroxetine, male rat frontal cortical membranes, read-out: 5-HT Transporter Affinity KI

Structure (SMILES) | Ki (serotonin transporter) | Ki (human 5-HT1A receptors) | IC50 [1] | 5-HT1A Function Imax (maximum inhibitory effect) [1] | melting point | Ki (serotonin transporter; [2])
C1=C(c2c[nH]c3ccccc23)CCN(CC2COc3ccc4c(c3O2)CCCO4)C1 (stereo not shown) [Example 4, 3-{1-[2,3,9,10-Tetrahydro-8H-[1,4]dioxino[2,3-f]chromen-2-ylmethyl]-1,2,3,6-tetrahydro-4-pyridinyl}-1H-indole] | 8.5 nM | 30.4 nM | 868 nM | 100 | 186 to 187 °C | –
Fc1ccc2[nH]cc(C3=CCN(CC4COc5ccc6c(c5O4)CCCO6)CC3)c2c1 (stereo not shown) [Example 5, 5-Fluoro-3-{1-[2,3,9,10-tetrahydro-8H-[1,4]dioxino[2,3-f]chromen-2-ylmethyl]-1,2,3,6-tetrahydro-4-pyridinyl}-1H-indole] | 10 nM | 29.4 nM | 347 nM | 100 | – | –
Cc1cc2c3c(ccc2o1)OC[C@H](CN1CC=C(c2c[nH]c4ccccc24)CC1)O3 [Example 1] | – | 14.1 nM | 241 nM | 62.0 | – | 185 nM
C1=C(c2c[nH]c3ccccc23)CCN(CC2COc3ccc4occc4c3O2)C1 (stereo not shown) [Example 3, 3-{1-[2,3-Dihydrofuro[3,2-f][1,4]benzodioxin-2-ylmethyl]-1,2,3,6-tetrahydropyridin-4-yl}-1H-indole] | – | 19.6 nM | 19 nM | 61.0 | 208 to 209 °C | 115 nM
C1=C(c2c[nH]c3ccccc23)CCN(CC2COc3ccc4c(c3O2)CCO4)C1 (stereo not shown) [Example 2, 3-{1-[2,3,8,9-Tetrahydrofuro[3,2-f][1,4]benzodioxin-2-ylmethyl]-1,2,3,6-tetrahydro-4-pyridinyl}-1H-indole] | 34 nM | 46 nM | 264 nM | 66.0 | 207 to 209 °C | –
Fc1ccc2[nH]cc(C3=CCN(CC4COc5ccc6c(c5O4)CCCO6)CC3)c2c1 (stereo not shown) (as salt: salt) [Example 5, 5-Fluoro-3-{1-[2,3,9,10-tetrahydro-8H-[1,4]dioxino[2,3-f]chromen-2-ylmethyl]-1,2,3,6-tetrahydro-4-pyridinyl}-1H-indole] | – | – | – | – | 205 to 206 °C | –
Cc1cc2ccc3c(c2o1)OC(CN1CC=C(c2c[nH]c4ccccc24)CC1)CO3 (stereo not shown) [Example 1] | – | – | – | – | 198 to 200 °C | –
